Measured values published in patent US8809265B2, “Methods for treating HCV” (AbbVie Inc., priority 2011, dated 2014).

Test: bioequivalence of solid formulations of Compound 2
Type: in vivo
Settings: 250 mg in improved solid formulation (increased binder, e.g. copovidone) versus 400 mg in original formulation
Text: Accordingly, in one aspect, the present technology features a method of treating HCV infection, comprising administering to a patient in need thereof an effective amount of a combination of two or more DAAs. […] The DAAs can be administered at the same or different dosing frequencies. The patient being treated can be a treatment naïve patient, a treatment experienced patient, including, but not limited to, a relapser, an interferon partial responder, or an interferon non-responder; or a patient unable to take interferon. The patient may be infected with, for example and without limitation, HCV genotype 1, such as HCV genotype 1a or HCV genotype 1b; or HCV genotype 2 or 3. The treatment according to this aspect of the technology may also be effective against other HCV genotypes. The DAAs can be administered around the same time or at different times, and can be co-formulated in a single formulation or formulated in different compositions. Each DAA can be selected from HCV protease inhibitors, HCV polymerase inhibitors, or HCV NS5A inhibitors. […]

bioequivalence of formulations: bioequivalent
Compound: COc1c(-c2ccc3cc(NS(C)(=O)=O)ccc3c2)cc(-n2ccc(=O)[nH]c2=O)cc1C(C)(C)C [Compound 2, N-(6-(3-tert-butyl-5-(2,4-dioxo-3,4-dihydropyrimidin-1(2H)-yl)-2-methoxyphenyl)naphthalen-2-yl)methanesulfonamide]
